Experimental data taken from the NIST ThermoML archive (doi:10.1021/je800894y).
Numbers after ± are expanded uncertainties.

Assay: xn = mol fraction of the nth substance listed
Conditions: Liquid; for viscosity: Vibrating wire viscometry; for mass density: vibrating-wire apparatus

CC(C)CCCC(C)CCCC(C)CCCCC(C)CCCC(C)CCCC(C)C (configuration not stated) [2,6,10,15,19,23-hexamethyltetracosane] + O=C=O
Conditions	mass density [kg/m3]	viscosity [mPa·s]
303.15 K, 10060 kPa, x2 = 0.4233	814.8 ± 1.6	9.12 ± 0.19
303.15 K, 10070 kPa, x2 = 0.4233	815.3 ± 1.6	9.17 ± 0.19
303.15 K, 30380 kPa, x2 = 0.4233	828 ± 1.7	12.7 ± 0.3
303.15 K, 50510 kPa, x2 = 0.4233	839.2 ± 1.7	17.3 ± 0.4
303.15 K, 70400 kPa, x2 = 0.4233	849.3 ± 1.7	23 ± 0.5
303.15 K, 90250 kPa, x2 = 0.4233	856.5 ± 1.7	30.5 ± 0.6
303.15 K, 110380 kPa, x2 = 0.4233	862.1 ± 1.7	40.1 ± 0.8
303.15 K, 130280 kPa, x2 = 0.4233	867.8 ± 1.7	52.3 ± 1.1
303.15 K, 150080 kPa, x2 = 0.4233	869.4 ± 1.7	67.8 ± 1.4
303.15 K, 170210 kPa, x2 = 0.4233	882.8 ± 1.8	85.9 ± 1.9
303.17 K, 30190 kPa, x2 = 0.7882	854.3 ± 1.7	2.36 ± 0.05
303.17 K, 30740 kPa, x2 = 0.7882	847.4 ± 1.7	2.24 ± 0.05
303.17 K, 50100 kPa, x2 = 0.7882	863.4 ± 1.7	2.79 ± 0.06
303.17 K, 70730 kPa, x2 = 0.7882	877.8 ± 1.8	3.43 ± 0.07
303.17 K, 90490 kPa, x2 = 0.7882	890 ± 1.8	4.15 ± 0.09
303.17 K, 110640 kPa, x2 = 0.7882	901.1 ± 1.8	4.95 ± 0.1
303.17 K, 130570 kPa, x2 = 0.7882	911 ± 1.8	5.91 ± 0.12
303.17 K, 151340 kPa, x2 = 0.7882	922.8 ± 1.8	6.94 ± 0.14
303.17 K, 170570 kPa, x2 = 0.7882	934.8 ± 1.9	8.13 ± 0.17
303.18 K, 10600 kPa, x2 = 0.6039	823.9 ± 1.6	4.92 ± 0.1
303.18 K, 30810 kPa, x2 = 0.6039	838.1 ± 1.7	6.58 ± 0.14
303.18 K, 50820 kPa, x2 = 0.6039	850.4 ± 1.7	8.58 ± 0.18
303.18 K, 70800 kPa, x2 = 0.6039	861 ± 1.7	11 ± 0.2
303.18 K, 91100 kPa, x2 = 0.6039	871.1 ± 1.7	14 ± 0.3
303.18 K, 100670 kPa, x2 = 0.6039	874.8 ± 1.8	15.6 ± 0.3
303.18 K, 111110 kPa, x2 = 0.6039	879.9 ± 1.8	17.5 ± 0.4
303.18 K, 130850 kPa, x2 = 0.6039	888.1 ± 1.8	21.7 ± 0.4
303.18 K, 150500 kPa, x2 = 0.6039	897.9 ± 1.8	26.5 ± 0.5
303.18 K, 170440 kPa, x2 = 0.6039	910.5 ± 1.8	32 ± 0.7
348.11 K, 10450 kPa, x2 = 0.6039	787.7 ± 1.6	1.92 ± 0.04
348.11 K, 10480 kPa, x2 = 0.6039	788.1 ± 1.6	1.92 ± 0.04
348.11 K, 30310 kPa, x2 = 0.6039	806 ± 1.6	2.49 ± 0.05
348.11 K, 50270 kPa, x2 = 0.6039	820.7 ± 1.6	3.13 ± 0.06
348.11 K, 70180 kPa, x2 = 0.6039	833.3 ± 1.7	3.85 ± 0.08
348.11 K, 90320 kPa, x2 = 0.6039	844.4 ± 1.7	4.68 ± 0.1
348.11 K, 110880 kPa, x2 = 0.6039	854.6 ± 1.7	5.64 ± 0.12
348.11 K, 130860 kPa, x2 = 0.6039	863.7 ± 1.7	6.7 ± 0.14
348.11 K, 150870 kPa, x2 = 0.6039	872.1 ± 1.7	7.9 ± 0.16
348.11 K, 170910 kPa, x2 = 0.6039	879.8 ± 1.8	9.28 ± 0.19
348.25 K, 10070 kPa, x2 = 0.4233	783.6 ± 1.6	2.99 ± 0.06
348.25 K, 10100 kPa, x2 = 0.4233	783.4 ± 1.6	2.98 ± 0.06
348.25 K, 30390 kPa, x2 = 0.7882	806 ± 1.6	1.08 ± 0.04
348.25 K, 30440 kPa, x2 = 0.4233	799.2 ± 1.6	3.95 ± 0.08
348.25 K, 30610 kPa, x2 = 0.7882	806.9 ± 1.6	1.07 ± 0.03
348.25 K, 50540 kPa, x2 = 0.7882	827 ± 1.7	1.34 ± 0.03
348.25 K, 50590 kPa, x2 = 0.4233	812.2 ± 1.6	5.1 ± 0.11
348.25 K, 70530 kPa, x2 = 0.4233	823.5 ± 1.6	6.42 ± 0.13
348.25 K, 70650 kPa, x2 = 0.7882	844 ± 1.7	1.61 ± 0.03
348.25 K, 90610 kPa, x2 = 0.4233	833.7 ± 1.7	7.98 ± 0.16
348.25 K, 90680 kPa, x2 = 0.7882	858.4 ± 1.7	1.91 ± 0.04
348.25 K, 110350 kPa, x2 = 0.7882	870.8 ± 1.7	2.22 ± 0.05
348.25 K, 110610 kPa, x2 = 0.4233	842.8 ± 1.7	9.83 ± 0.2
348.25 K, 130400 kPa, x2 = 0.4233	851.3 ± 1.7	11.9 ± 0.3
348.25 K, 130530 kPa, x2 = 0.7882	882.3 ± 1.8	2.57 ± 0.05
348.25 K, 150600 kPa, x2 = 0.7882	892.7 ± 1.8	2.94 ± 0.06
348.25 K, 150670 kPa, x2 = 0.4233	859.3 ± 1.7	14.5 ± 0.3
348.25 K, 169670 kPa, x2 = 0.4233	866.3 ± 1.7	17.3 ± 0.4
348.25 K, 170310 kPa, x2 = 0.7882	902 ± 1.8	3.34 ± 0.07
398.13 K, 10940 kPa, x2 = 0.6039	749.2 ± 1.5	1.01 ± 0.02
398.13 K, 11100 kPa, x2 = 0.6039	748.9 ± 1.5	1 ± 0.02
398.13 K, 30870 kPa, x2 = 0.6039	771.8 ± 1.5	1.3 ± 0.03
398.13 K, 50550 kPa, x2 = 0.6039	789.2 ± 1.6	1.61 ± 0.03
398.13 K, 70810 kPa, x2 = 0.6039	804.2 ± 1.6	1.95 ± 0.04
398.13 K, 91230 kPa, x2 = 0.6039	817.2 ± 1.6	2.31 ± 0.05
398.13 K, 110700 kPa, x2 = 0.6039	828.2 ± 1.7	2.69 ± 0.06
398.13 K, 131240 kPa, x2 = 0.6039	838.7 ± 1.7	3.12 ± 0.06
398.13 K, 150740 kPa, x2 = 0.6039	847.7 ± 1.7	3.57 ± 0.07
398.13 K, 170660 kPa, x2 = 0.6039	856.2 ± 1.7	4.08 ± 0.08
398.31 K, 10790 kPa, x2 = 0.4233	749 ± 1.5	1.38 ± 0.03
398.31 K, 10830 kPa, x2 = 0.4233	755.3 ± 1.5	1.39 ± 0.03
398.31 K, 30180 kPa, x2 = 0.4233	768.1 ± 1.5	1.79 ± 0.04
398.31 K, 50350 kPa, x2 = 0.4233	784 ± 1.6	2.24 ± 0.05
398.31 K, 70500 kPa, x2 = 0.4233	797.4 ± 1.6	2.74 ± 0.06
398.31 K, 90450 kPa, x2 = 0.4233	808.9 ± 1.6	3.3 ± 0.07
398.31 K, 110290 kPa, x2 = 0.4233	819.1 ± 1.6	3.92 ± 0.08
398.31 K, 130350 kPa, x2 = 0.4233	828.4 ± 1.7	4.62 ± 0.1
398.31 K, 150520 kPa, x2 = 0.4233	837.2 ± 1.7	5.4 ± 0.11
398.31 K, 170000 kPa, x2 = 0.4233	845 ± 1.7	6.24 ± 0.13
398.33 K, 30150 kPa, x2 = 0.7882	760.4 ± 1.5	0.62 ± 0.01
398.33 K, 30500 kPa, x2 = 0.7882	759.9 ± 1.5	0.62 ± 0.02
398.33 K, 50500 kPa, x2 = 0.7882	786.7 ± 1.6	0.78 ± 0.02
398.33 K, 70580 kPa, x2 = 0.7882	807.3 ± 1.6	0.94 ± 0.02
398.33 K, 90510 kPa, x2 = 0.7882	824.2 ± 1.6	1.1 ± 0.02
398.33 K, 110760 kPa, x2 = 0.7882	839 ± 1.7	1.28 ± 0.03
398.33 K, 130550 kPa, x2 = 0.7882	851.6 ± 1.7	1.46 ± 0.03
398.33 K, 150620 kPa, x2 = 0.7882	863.2 ± 1.7	1.65 ± 0.03
398.33 K, 170310 kPa, x2 = 0.7882	873.6 ± 1.7	1.84 ± 0.04
448.13 K, 10630 kPa, x2 = 0.6039	713.1 ± 1.4	0.69 ± 0.02
448.13 K, 11010 kPa, x2 = 0.6039	713.3 ± 1.4	0.68 ± 0.02
448.13 K, 30730 kPa, x2 = 0.6039	739.7 ± 1.5	0.89 ± 0.02
448.13 K, 50590 kPa, x2 = 0.6039	759.8 ± 1.5	1.09 ± 0.02
448.13 K, 70380 kPa, x2 = 0.6039	776.6 ± 1.6	1.22 ± 0.03
448.13 K, 91380 kPa, x2 = 0.6039	791.8 ± 1.6	1.43 ± 0.03
448.13 K, 111050 kPa, x2 = 0.6039	804.5 ± 1.6	1.63 ± 0.03
448.13 K, 130810 kPa, x2 = 0.6039	815.7 ± 1.6	1.84 ± 0.04
448.13 K, 150960 kPa, x2 = 0.6039	826 ± 1.7	2.08 ± 0.04
448.13 K, 171000 kPa, x2 = 0.6039	835.3 ± 1.7	2.35 ± 0.05
448.35 K, 11450 kPa, x2 = 0.4233	715.2 ± 1.4	0.8 ± 0.02
448.35 K, 11570 kPa, x2 = 0.4233	720.6 ± 1.4	0.81 ± 0.02
448.35 K, 30330 kPa, x2 = 0.4233	737.6 ± 1.5	1.04 ± 0.02
448.35 K, 50410 kPa, x2 = 0.4233	756.5 ± 1.5	1.3 ± 0.03
448.35 K, 70450 kPa, x2 = 0.4233	771.8 ± 1.5	1.57 ± 0.03
448.35 K, 90670 kPa, x2 = 0.4233	785.2 ± 1.6	1.86 ± 0.04
448.35 K, 110310 kPa, x2 = 0.4233	796.6 ± 1.6	2.17 ± 0.05
448.35 K, 130440 kPa, x2 = 0.4233	807 ± 1.6	2.52 ± 0.05
448.35 K, 150510 kPa, x2 = 0.4233	816.5 ± 1.6	2.88 ± 0.06
448.35 K, 169900 kPa, x2 = 0.4233	824.8 ± 1.7	3.28 ± 0.07
448.41 K, 30160 kPa, x2 = 0.7882	714.5 ± 1.4	0.41 ± 0.01
448.41 K, 30820 kPa, x2 = 0.7882	714.9 ± 1.4	0.41 ± 0.01
448.41 K, 50450 kPa, x2 = 0.7882	748 ± 1.5	0.52 ± 0.01
448.41 K, 70350 kPa, x2 = 0.7882	772.5 ± 1.5	0.63 ± 0.01
448.41 K, 90420 kPa, x2 = 0.7882	792.3 ± 1.6	0.74 ± 0.02
448.41 K, 110590 kPa, x2 = 0.7882	809.1 ± 1.6	0.85 ± 0.02
448.41 K, 130360 kPa, x2 = 0.7882	823.3 ± 1.6	0.97 ± 0.02
448.41 K, 150480 kPa, x2 = 0.7882	836.2 ± 1.7	1.1 ± 0.02
448.41 K, 169720 kPa, x2 = 0.7882	847.5 ± 1.7	1.22 ± 0.03
